Assay results from patent US11479529B2, “Compounds with antimicrobial activity” (The Hong Kong Polytechnic University, priority 2018, dated 2022).
In brackets after ≈: the same amount, converted by molar mass. Several values for one entry are separate records, joined by “and”; a condition that tells them apart may be missing. Equal entries are not always repeated.

Assays:
Cytotoxicity assay, A549 = assay type: cell-based, human; conditions: human, A549 lung carcinoma cells
Description: (§1) Cytotoxicity assay was performed as detailed previously^43 except A549 lung carcinoma and HaCaT immortalized human keratinocytes were used in this study.

[1] = Cytotoxicity assay, HaCaT; assay type: cell-based; conditions: HaCaT immortalized human keratinocytes
Description: as §1

NusB-NusE interaction = molecular target: T1, NusB-NusE interaction (Bacillus subtilis, UniProt P54520); assay: ELISA-based inhibitory assay of NusB-NusE heterodimer formation; assay type: binding, B. subtilis; conditions: NusB coated plate, GST-tagged NusE probe; read-out: IC50, inhibition of the NusB-NusE interaction
T1 construct: 6xHis (N); made in house; host or cells: E. coli BL21 (DE3) pLysS
Description: Finally, to establish MC4's mode of action at the molecular level, an enzyme-linked immunosorbant assay-based inhibitory assay was performed to assess the in vitro inhibition of NusB-NusE heterodimer formation by MC4.^24 Purified NusB was used to coat the 96-well plate, and GST-tagged NusE was used as the probe. […] With the change in the phenyl acetylene group to phenols, the IC50 values of the corresponding MC4 analogues increased, while deletion of this terminal triple bond or replacing by methyl or chloride caused a reduced IC50. When p-nitrophenol was modified to o-nitrophenol, the IC50 values increased, probably because of the involvement of the phenol group in the binding interaction with NusB Y81 (Table 3).
Protein overproduction and purification. B. subtilis NusB (wild type and mutant) and NusE-GST were overproduced from plasmids (Table 2) and purified using a similar approach to that described previously.^45 Purified proteins were dialyzed into 20 mM KH2PO4, 150 mM NaCl, 30% glycerol, pH 7.8 and stored at […].
ELISA-based assays. These assays were performed as described previously,^41 except NusB was used to coat the NUNC MaxiSorp™ 96-well plates and GST-tagged NusE used as the probe.

[2] = test system: community-acquired MRSA strain USA300; assay: Microdilution assay (MIC) against community-acquired MRSA strain USA300; assay type: cell-based; conditions: Staphylococcus aureus, read-out: minimum inhibitory concentration (MIC)
Description: (§2) The antimicrobial activity of the seven compounds against community-acquired MRSA strain USA300 were first screened. […] With a molecular weight of 266.3, MC4 has been reported to be of use only to form a metal complex dye in optical layers for optical data recording.^26 The antimicrobial activities of MC4 against a panel of representative strains of pathogens were then tested.
(§3) Bacterial Strains and Chemicals. The following bacterial strains were used in this study for the microdilution assay: Enterococcus faecalis ATCC 29212, Klebsiella pneumonia ATCC 700603, Acinetobacter baumannii ATCC 19606, Pseudomonas aeruginosa PA01, Enterobacter cloacae ATCC 13047, E. coli ATCC 25922, Proteus vulgaris ATCC 6380, and S. aureus USA300, ATCC 25923, ATCC 29213, ST22, ST30, ST45, ST59, ST239, JE-2, BAA44. E. coli strain DH5a (Gibco BRL) was used in this study for cloning and BL21 (DE3) pLysS^23 was used for protein overproduction. 5-fluorouracil, rifampicin and other antibiotics used in the microdilution assay were purchased from SigmaAldrich. Compounds MC1-7 were purchased from MolPort.
(§4) Antibacterial activity test. Microdilution assay was performed according to the Clinical & Laboratory Standards Institute recommendations.^42 Serial 2-fold dilutions of the tested compounds and antibiotic controls were made from 256 μg/ml to 0.5 μg/ml. DMSO was included as a negative control.

S. aureus 25923 = assay: Microdilution assay (MIC) against control strain S. aureus 25923; assay type: cell-based; conditions: Staphylococcus aureus
Description: as §2, §3, §4

[3] = test system: healthcare acquired MRSA ST239; assay: Microdilution assay (MIC) against healthcare acquired MRSA ST239; assay type: cell-based, Staphylococcus aureus
Description: as §2, §3, §4

A549 lung carcinoma = assay: Cytotoxicity assay, A549; assay type: cell-based, human; conditions: mammalian cell lines (Table 1: A549, HaCaT), compared to 5-fluorouracil
Description: as §1

[4] = test system: S. aureus ATCC 25923 cells; assay: DNA, protein and rRNA quantitation in treated cells; assay type: cell-based, Staphylococcus aureus; conditions: one-quarter MIC, exponential growth, versus control cells
Description: The level of macromolecules in S. aureus ATCC 25923 cells during exponential growth due to MC4 treatment were analyzed.
DNA, protein and rRNA quantitation. MC4, oxacillin and rifampicin at ¼ MIC level were added to S. aureus strain ATCC 25923 in LB medium at early log phase (OD595=0.2), which was then grown to mid-log phase (OD595==0.5). For DNA and protein quantitation, 1 ml cells were harvested and treated with 10 mg/ml lysozyme+0.5 mg/ml lysostaphin at RT for 1 hr before centrifugation at 13000 g/min for 3 min. The supernatant was discarded and cells lysed with 600 μl Nuclei Lysis Solution (Promega/Genomic DNA Purification Kit) for 5 min, followed by gentle sonication. The amount of DNA was quantified with Qubit dsDNA BR (broad range) and protein quantified with NanoOrange™ Protein Quantitation Kit (ThermoFisher). For rRNA quantitation, 1 ml culture was collected and treated with RNAProtect (Qiagen), before total RNA was extracted with an RNeasv Mini Kit (Qiagen). DNase I treatment was performed with a TURBO DNA-free Kit (ThermoFisher). The extracted RNA was subjected to Agilent 2100 analysis, and the level of major rRNA (the sum of 16S+23S rRNA) as percentage of total RNA. The values were compared across each treatment group. All experiments were repeated three times.

[5] = molecular target: T2, B. subtilis NusB wild type protein (Bacillus subtilis, UniProt P54520); assay: Isothermal titration calorimetry, NusB wild type; assay type: binding; conditions: ITC
T2 construct: 6xHis (N); made in house; host or cells: E. coli BL21 (DE3) pLysS
Description: (§5) The interaction between MC4 and NusB was also biophysically quantified. […] Further experiments will be performed to resolve the structure of NusB in complex with MC4 for target validation, as well as structure-based lead optimization.
(§6) Isothermal calorimetric titration (ITC). ITC experiments were performed as described previously.^41 For compound testing, a 50 mM stock made up in DMSO was diluted to 500 μM in ITC buffer (50 mM KH2PO4, 150 mM NaCl, pH 7.4). All proteins were dialysed into ITC buffer and were supplemented with the same concentration of DMSO (1% v/v) to minimize buffer miss-match. MC4 was then titrated against 50 μM NusB wild type and mutants as described previously^41 using 1% DMSO in ITC buffer as the negative control.

NusE = molecular target: T3, NusE (Bacillus subtilis, UniProt P21471); assay: Isothermal titration calorimetry, NusE; assay type: binding, B. subtilis
T3 construct: 3C protease site + GST (C); made in house; host or cells: E. coli BL21 (DE3) pLysS

[6] = test system: NusB variants (Y18A, D76A, and D81A); assay: Isothermal titration calorimetry, NusB variants; assay type: binding, B. subtilis
Description: as §5, §6

T1 sequence (P54520 whole entry): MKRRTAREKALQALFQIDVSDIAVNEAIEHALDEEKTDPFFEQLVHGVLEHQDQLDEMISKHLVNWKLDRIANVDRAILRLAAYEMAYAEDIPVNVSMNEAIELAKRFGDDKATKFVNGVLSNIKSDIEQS
T2 sequence (P54520 whole entry): as above

O=c1[nH]cc(F)c(=O)[nH]1 [5-fluorouracil, reference compound]
CC50 (Cytotoxicity assay, A549): 0.00562 ± 2e-06 µM
CC50 [1]: < 0.001 µM

O=[N+]([O-])c1ccc(O)c(/C=N/c2ccc(Cl)cc2)c1 [MC4-7, 2-{(E)-[(4-chlorophenyl)imino]methyl}-4-nitrophenol]
IC50 (NusB-NusE interaction): 1639 ± 12.7 µM

O=[N+]([O-])c1ccc(O)c(/C=N/c2cccc(O)c2)c1 [MC4-8, 2-{(E)[(3-hydroxyphenyl)imino]methyl}-4-nitrophenol]
IC50 (NusB-NusE interaction): 0.00692 µM

Cc1cccc(/N=C/c2cc([N+](=O)[O-])ccc2O)c1 [MC4-5, 2-{(E)-[(3-methylphenyl)imino]methyl}-4-nitrophenol]
IC50 (NusB-NusE interaction): 971 ± 11.6 µM

O=[N+]([O-])c1cccc(/C=N/c2ccccc2)c1O [MC4-1, 2-nitro-6-[(E)-(phenylimino)methyl]phenol]
IC50 (NusB-NusE interaction): 14.4 ± 2.59 µM

O=[N+]([O-])c1ccc(O)c(/C=N/c2ccc(O)cc2)c1 [MC4-6, 2-{(E)-[(4-hydroxyphenyl)imino]methyl}-4-nitrophenol]
IC50 (NusB-NusE interaction): 0.00815 µM

O=[N+]([O-])c1ccc(O)c(C=Nc2ccccc2)c1 [MC4-4, 4-nitro-2-[(phenylimino)methyl]phenol]
IC50 (NusB-NusE interaction): 147 ± 17.9 µM

C#Cc1cccc(/N=C/c2cc([N+](=O)[O-])ccc2O)c1 [MC4, (E)-2-[[(3-ethynylphenyl)imino]methyl]-4-nitrophenol]
MIC [2]: 64 µg/mL (≈ 240 µM)
MIC (S. aureus 25923): 8 µg/mL (≈ 30 µM)
MIC [3]: 16 µg/mL (≈ 60.1 µM)
CC50 (Cytotoxicity assay, A549): 183 ± 7.71 µM
cytotoxicity against mammalian cell lines (A549 lung carcinoma): did not show significant cytotoxicity
CC50 [1]: 695.1 ± 5.95 µM
DNA level [4]: none of the treatment affected the DNA level
protein level [4]: significant reduction in the protein level
rRNA level (16S+23S) [4]: significant reduction in the rRNA level
IC50 (NusB-NusE interaction): ~34.7 µM and 34.7 µM
N [5]: 0.988±0.076
ΔH [5]: -7.141 ± 0.9398 kcal/mol
ΔS [5]: −1.81 cal/mol/deg
Kd ([5]; one-site binding mode): 1.45 ± 0.55 µM
Binding to NusE by ITC (NusE): could not be detected
Binding to NusB variants by ITC [6]: could not be detected

Cc1onc(-c2ccccc2)c1C(=O)N[C@@H]1C(=O)N2[C@@H]1SC(C)(C)[C@@H]2C(=O)O [oxacillin, reference compound]
DNA level [4]: none of the treatment affected the DNA level
protein level [4]: slightly higher than those of control cells
rRNA level (16S+23S) [4]: slightly higher than those of control cells
